Test results taken from US6737383B1, “Herbicidal oxadiazolidines” (priority 1999, dated 2004).

Key:
[1] = system: smallflower flatsedge; assay: Test B flood test smallflower flatsedge; format: in vivo, Cyperus difformis
Procedure, shortened: (§1)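 Read-out is a visual response score from 0 (no effect) to 10 (complete control), assigned by comparison with untreated controls. Treatment was applied at the 2-leaf stage, and plants stayed in the greenhouse for twelve to sixteen days before scoring.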

[2] = system: wheat; assay: Test B pre/postemergence wheat; format: in vivo, Triticum aestivum
Procedure, shortened: (§2)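 Test chemicals in a non-phytotoxic solvent mixture with surfactant were sprayed preemergence onto planted seeds and postemergence onto plants 2 to 18 cm tall (1- to 4-leaf stage). After twelve to sixteen days in a greenhouse, injury was visually rated against untreated controls from 0 (no effect) to 10 (complete control).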

[3] = system: surinam grass; assay: Test B pre/postemergence surinam grass; format: in vivo, Brachiaria decumbens
Procedure, shortened: as §2

[4] = system: cocklebur; assay: Test B pre/postemergence cocklebur; format: in vivo, Xanthium strumarium
Procedure, shortened: as §2

[5] = system: pigweed; assay: Test B pre/postemergence pigweed; format: in vivo, Amaranthus retroflexus
Procedure, shortened: as §2

[6] = system: bedstraw; assay: Test B pre/postemergence bedstraw; format: in vivo, Galium aparine
Procedure, shortened: as §2

[7] = system: bamyardgrass; assay: Test B flood test barnyardgrass; format: in vivo, Echinochloa crus-galli
Procedure, shortened: as §1

[8] = system: wild oat; assay: Test B pre/postemergence wild oat; format: in vivo, Avena fatua
Procedure, shortened: as §2

[9] = system: crabgrass; assay: Test B pre/postemergence crabgrass; format: in vivo, Digitaria sanguinalis
Procedure, shortened: as §2

[10] = system: purple nutsedge; assay: Test B pre/postemergence purple nutsedge; format: in vivo, Cyperus rotundus
Procedure, shortened: as §2

[11] = system: blackgrass; assay: Test B pre/postemergence blackgrass; format: in vivo, Alopecurus myosuroides
Procedure, shortened: as §2

[12] = system: sugar beet; assay: Test B pre/postemergence sugar beet; format: in vivo, Beta vulgaris
Procedure, shortened: as §2

[13] = system: corn; assay: Test B pre/postemergence corn; format: in vivo, Zea mays
Procedure, shortened: as §2

[14] = system: soybean; assay: Test B pre/postemergence soybean; format: in vivo, Glycine max
Procedure, shortened: as §2

[15] = system: velvetleaf; assay: Test B pre/postemergence velvetleaf; format: in vivo, Abutilon theophrasti
Procedure, shortened: as §2

[16] = system: rape; assay: Test B pre/postemergence rape; format: in vivo, Brassica napus
Procedure, shortened: as §2

[17] = Rate 62 g/ha, headed Pre-emergence (flood test species), scale 0 to 10 (0 no effect, 10 complete control)
[18] = Rate 125 g/ha, Pre-emergence, flood test species, scale 0 to 10 where 0 is no effect and 10 is complete control
[19] = Rate 250 g/ha, Pre-emergence, flood-test species, scale 0 to 10, 0 is no effect, 10 is complete control
[20] = Rate 500 g/ha, Pre-emergence, flood test species, scale 0 to 10 (0 no effect, 10 complete control)
[21] = Preemergence, Rate 62 g/ha, scale of 0 to 10 where 0 is no effect and 10 is complete control
[22] = Preemergence, Rate 250 g/ha, scale of 0 to 10 where 0 is no effect and 10 is complete control
[23] = Preemergence, Rate 500 g/ha, scale of 0 to 10 where 0 is no effect and 10 is complete control
[24] = Rate 125 g/ha, Postemergence, scale of 0 to 10 where 0 is no effect and 10 is complete control
[25] = Rate 125 g/ha, Preemergence, scale of 0 to 10 where 0 is no effect and 10 is complete control
[26] = Rate 250 g/ha, Postemergence, scale of 0 to 10 where 0 is no effect and 10 is complete control
[27] = Rate 500 g/ha, Postemergence, scale 0 to 10, 0 no effect, 10 complete control
[28] = Rate 62 g/ha, Postemergence, scale of 0 to 10 where 0 is no effect and 10 is complete control

SMILES: Cc1ccccc1-n1c(=O)on(C(=O)N(c2ccc(C(C)(C)C)cc2)C(C)C)c1=O [Compound 270]
- S. Flatsedge plant response rating [1, 17]: 0
- S. Flatsedge plant response rating [1, 18]: 0
- S. Flatsedge plant response rating [1, 19]: 0
- S. Flatsedge plant response rating [1, 20]: 0
- Wheat plant response rating [2, 21]: 0
- Wheat plant response rating [2, 22]: 0
- Plant response rating, Wheat [2, 23]: 0
- Wheat plant response rating [2, 24]: 0
- Wheat plant response rating [2, 25]: 0
- Plant response rating, Wheat [2, 26]: 0
- Wheat plant response rating [2, 27]: 0
- B. signalgrass plant response rating [3, 21]: 0
- B. signalgrass plant response rating [3, 22]: 0
- Plant response rating, B. signalgrass [3, 23]: 0
- B. signalgrass plant response rating [3, 28]: 0
- B. signalgrass plant response rating [3, 24]: 0
- B. signalgrass plant response rating [3, 25]: 0
- Plant response rating, B. signalgrass [3, 26]: 0
- B. signalgrass plant response rating [3, 27]: 0
- Cocklebur plant response rating [4, 21]: 0
- Cocklebur plant response rating [4, 22]: 0
- Plant response rating, Cocklebur [4, 23]: 0
- Cocklebur plant response rating [4, 28]: 0
- Cocklebur plant response rating [4, 24]: 0
- Cocklebur plant response rating [4, 25]: 0
- Plant response rating, Cocklebur [4, 26]: 0
- Cocklebur plant response rating [4, 27]: 0
- Redroot pigweed plant response rating [5, 21]: 0
- Redroot pigweed plant response rating [5, 22]: 0
- Plant response rating, Redroot pigweed [5, 23]: 0
- Redroot pigweed plant response rating [5, 24]: 0
- Redroot pigweed plant response rating [5, 25]: 0
- Plant response rating, Redroot pigweed [5, 26]: 0
- Redroot pigweed plant response rating [5, 27]: 0
- Bedstraw plant response rating [6, 21]: 0
- Bedstraw plant response rating [6, 22]: 0
- Plant response rating, Bedstraw [6, 23]: 0
- Bedstraw plant response rating [6, 28]: 0
- Bedstraw plant response rating [6, 24]: 0
- Bedstraw plant response rating [6, 25]: 0
- Plant response rating, Bedstraw [6, 26]: 0
- Bedstraw plant response rating [6, 27]: 0
- Barnyardgrass plant response rating [7, 17]: 0
- Barnyardgrass plant response rating [7, 18]: 0
- Barnyardgrass plant response rating [7, 19]: 0
- Barnyardgrass plant response rating [7, 20]: 0
- Wild oats plant response rating [8, 21]: 0
- Wild oats plant response rating [8, 22]: 0
- Plant response rating, Wild oats [8, 23]: 0
- Wild oats plant response rating [8, 24]: 0
- Plant response rating, Wild oats [8, 26]: 0
- Wild oats plant response rating [8, 27]: 0
- Crabgrass plant response rating [9, 21]: 0
- Crabgrass plant response rating [9, 22]: 0
- Plant response rating, Crabgrass [9, 23]: 0
- Crabgrass plant response rating [9, 24]: 0
- Crabgrass plant response rating [9, 25]: 0
- Plant response rating, Crabgrass [9, 26]: 0
- Crabgrass plant response rating [9, 27]: 0
- Nutsedge plant response rating [10, 21]: 0
- Nutsedge plant response rating [10, 22]: 0
- Plant response rating, Nutsedge [10, 23]: 0
- Nutsedge plant response rating [10, 24]: 0
- Nutsedge plant response rating [10, 25]: 0
- Plant response rating, Nutsedge [10, 26]: 0
- Nutsedge plant response rating [10, 27]: 0
- Blackgrass plant response rating [11, 21]: 0
- Blackgrass plant response rating [11, 22]: 0
- Plant response rating, Blackgrass [11, 23]: 0
- Blackgrass plant response rating [11, 28]: 0
- Blackgrass plant response rating [11, 24]: 0
- Blackgrass plant response rating [11, 25]: 0
- Plant response rating, Blackgrass [11, 26]: 0
- Blackgrass plant response rating [11, 27]: 0
- Sugarbeets plant response rating [12, 21]: 0
- Sugarbeets plant response rating [12, 22]: 0
- Plant response rating, Sugarbeets [12, 23]: 0
- Sugarbeets plant response rating [12, 24]: 0
- Sugarbeets plant response rating [12, 25]: 0
- Plant response rating, Sugarbeets [12, 26]: 0
- Sugarbeets plant response rating [12, 27]: 0
- Corn plant response rating [13, 21]: 0
- Corn plant response rating [13, 22]: 0
- Plant response rating, Corn [13, 23]: 0
- Corn plant response rating [13, 28]: 0
- Corn plant response rating [13, 24]: 0
- Corn plant response rating [13, 25]: 0
- Plant response rating, Corn [13, 26]: 0
- Corn plant response rating [13, 27]: 0
- Soybean plant response rating [14, 21]: 0
- Soybean plant response rating [14, 22]: 0
- Plant response rating, Soybean [14, 23]: 0
- Soybean plant response rating [14, 24]: 0
- Soybean plant response rating [14, 25]: 0
- Plant response rating, Soybean [14, 26]: 2
- Soybean plant response rating [14, 27]: 2
- Velvetleaf plant response rating [15, 21]: 0
- Velvetleaf plant response rating [15, 22]: 0
- Plant response rating, Velvetleaf [15, 23]: 0
- Velvetleaf plant response rating [15, 24]: 0
- Velvetleaf plant response rating [15, 25]: 0
- Plant response rating, Velvetleaf [15, 26]: 0
- Velvetleaf plant response rating [15, 27]: 0
- Rape plant response rating [16, 21]: 0
- Rape plant response rating [16, 22]: 0
- Plant response rating, Rape [16, 23]: 0
- Rape plant response rating [16, 24]: 0
- Rape plant response rating [16, 25]: 0
- Plant response rating, Rape [16, 26]: 0
- Rape plant response rating [16, 27]: 0
